Results as given in patent US7999004B2, “Compounds having estrogenic activity” (National Taiwan University, priority 2007, dated 2011).
Like-named read-outs stand apart in the source and are kept apart here.

Assays:
GAL4-hERα = target: T1, GAL4-hERα (Homo sapiens, UniProt P03372); test: Transactivation assay for estrogen activity, GAL4-hERα LBD chimeric receptor with (UAS)4-alkaline phosphatase reporter in CHO-K1 cells; assay type: cell-based; settings: for EC50: CHO-K1 cells, ALP reporter, read-out: EC50 value for ERα (converted); for maximal activation of ERα: at the concentration of maximal activation (compound 2: 40 μg/mL; compound 6: 20 μg/mL); for ALP activity with increasing concentration, GAL4-hERα / concentration at which the maximal activation of ERα is achieved: dose response curve
T1 construct: GAL4hERα (or β) LBD chimeric receptors; expressed in transfected cells; host or cells: CHO-K1 (CCRC 60006), transient co-transfection with Fugene 6
T1 sequence (P03372 311-547 limits assumed): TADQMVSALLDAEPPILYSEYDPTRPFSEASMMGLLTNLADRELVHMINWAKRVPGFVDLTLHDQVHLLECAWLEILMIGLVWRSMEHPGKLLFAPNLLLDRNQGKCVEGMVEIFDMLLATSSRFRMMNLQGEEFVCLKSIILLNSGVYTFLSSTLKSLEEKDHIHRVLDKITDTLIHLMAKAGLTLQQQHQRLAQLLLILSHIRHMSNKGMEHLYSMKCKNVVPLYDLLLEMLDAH
Source text: (§1) To evaluate the estrogen activity, the pBKCMV plasmid containing the gene of GAL4hERα (or β) LBD chimeric receptors was co-transfected with a plasmid containing the (UAS)4-alkaline phosphatase reporter gene into CHO-K1 cells. When a test sample was reacted with ER, the GAL4 was mediated to bind specifically with the UAS upstream of the reporter gene so as to activate the expression of the reporter gene, i.e. the alkaline phosphatase (ALP) enzyme. By measuring the alkaline phosphatase activity, we can detect the estrogen activity of the sample.
(§2) Cells were grown to confluence and seeded into 96-well microplates for a day. Before transfection, the two plasmids DNA in equal proportions were added to a mixture of the Fugene 6 transfection reagent and Ham's F12 medium, and then incubated for 20 min. At transfection, the fugene 6-DNA mixture was then added to the cells after the original FBS containing medium was removed.
(§3) After a 2-day culture, an aliquot of the medium was taken for the analysis of alkaline phosphatase activity.

GAL4-hERβ = target: T2, GAL4-hERβ (Homo sapiens, UniProt Q92731); test: Transactivation assay for estrogen activity, GAL4-hERβ LBD chimeric receptor with (UAS)4-alkaline phosphatase reporter in CHO-K1 cells; assay type: cell-based; settings: for EC50: CHO-K1 cells, ALP reporter, read-out: EC50 value for ERβ (converted); for maximal activation of ERβ: at the concentration of maximal activation (compound 2: 40 μg/mL; compound 6: 20 μg/mL); for ALP activity with increasing concentration, GAL4-hERβ / concentration at which the maximal activation of ERβ is achieved: dose response curve
T2 construct: GAL4hERα (or β) LBD chimeric receptors; expressed in transfected cells; host or cells: CHO-K1 (CCRC 60006), transient co-transfection with Fugene 6
T2 sequence (Q92731 264-498 limits assumed): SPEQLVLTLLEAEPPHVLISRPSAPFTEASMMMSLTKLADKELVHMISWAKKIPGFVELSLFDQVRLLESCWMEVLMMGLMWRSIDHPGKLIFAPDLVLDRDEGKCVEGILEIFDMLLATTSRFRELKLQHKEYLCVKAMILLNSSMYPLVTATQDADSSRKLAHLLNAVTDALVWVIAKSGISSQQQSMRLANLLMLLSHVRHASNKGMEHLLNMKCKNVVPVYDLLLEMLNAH
Source text: as §1, §2, §3

[1] = three concentrations, fraction with compound 5

COc1c(O)c(C)c2c(c1OC)O[C@](C)(CC/C=C(\C)CC/C=C(\C)CC/C=C(\C)CC/C=C(\C)CC/C=C(\C)CC/C=C(\C)CC/C=C(\C)CCC=C(C)C)C=C2 [compound 2, hydro-Q9 chromene]
EC50 (GAL4-hERα): 10.7 µM | EC50 (GAL4-hERα; value in parentheses): 10.8 µM | maximal activation of ERα (GAL4-hERα): 3.68 fold | ALP activity with increasing concentration, GAL4-hERα (GAL4-hERα): dose-dependent increase | concentration at which the maximal activation of ERα is achieved (GAL4-hERα): 40 µg/mL | concentration at which the maximal activation of ERα is achieved (GAL4-hERα; value in parentheses): 50.34 µM | EC50 (GAL4-hERβ): 7.36 µM | EC50 (GAL4-hERβ; value in parentheses): 7.4 µM | maximal activation of ERβ (GAL4-hERβ): 3.79 fold | ALP activity with increasing concentration, GAL4-hERβ (GAL4-hERβ): dose-dependent increase | concentration at which the maximal activation of ERβ is achieved (GAL4-hERβ): 40 µg/mL | concentration at which the maximal activation of ERβ is achieved (GAL4-hERβ; value in parentheses): 50.34 µM

COC1=C(OC)C(=O)C(C/C=C(\C)CC/C=C(\C)CC/C=C(\C)CC/C=C(\C)CC/C=C(\C)CC/C=C(\C)CC/C=C(\C)CC/C=C(\C)CCC=C(C)C)=C(C)C1=O [compound 3, coenzyme Q9]
EC50 (GAL4-hERα): 51 µM | EC50 (GAL4-hERα; value in parentheses): 13.3 µM | ALP activity with increasing concentration, GAL4-hERα (GAL4-hERα): dose-dependent increase | concentration at which the maximal activation of ERα is achieved (GAL4-hERα): 20 µg/mL | concentration at which the maximal activation of ERα is achieved (GAL4-hERα; value in parentheses): 25.2 µM | EC50 (GAL4-hERβ): 1.06 µM | EC50 (GAL4-hERβ; value in parentheses): 1.06 µM | ALP activity with increasing concentration, GAL4-hERβ (GAL4-hERβ): dose-dependent increase | concentration at which the maximal activation of ERβ is achieved (GAL4-hERβ): 20 µg/mL | concentration at which the maximal activation of ERβ is achieved (GAL4-hERβ; value in parentheses): 25.2 µM

CC(C)=CCC/C(C)=C/CC/C(C)=C/CC/C(C)=C/CC/C(C)=C/CC/C(C)=C/CC/C(C)=C/CC/C(C)=C/CC[C@]1(C)CCc2cc(O)c(C)c(C)c2O1 [compound 6, γ-tocopherol-9]
EC50 (GAL4-hERα): 12.7 µM | EC50 (GAL4-hERα; value in parentheses): 12.7 µM | maximal activation of ERα (GAL4-hERα): 2.91 fold | ALP activity with increasing concentration, GAL4-hERα (GAL4-hERα): dose-dependent increase | concentration at which the maximal activation of ERα is achieved (GAL4-hERα): 20 µg/mL | concentration at which the maximal activation of ERα is achieved (GAL4-hERα; value in parentheses): 26.64 µM | EC50 (GAL4-hERβ): 3.19 µM | EC50 (GAL4-hERβ; value in parentheses): 3.2 µM | maximal activation of ERβ (GAL4-hERβ): 3.26 fold | ALP activity with increasing concentration, GAL4-hERβ (GAL4-hERβ): dose-dependent increase | concentration at which the maximal activation of ERβ is achieved (GAL4-hERβ): 20 µg/mL | concentration at which the maximal activation of ERβ is achieved (GAL4-hERβ; value in parentheses): 26.64 µM

Cc1c(C)c2c(c(C)c1O)CC[C@@](C)(CCC[C@H](C)CCC[C@H](C)CCCC(C)C)O2 [compound 1, RRR-α-tocopherol]
EC50 (GAL4-hERα): 2.51 µM | EC50 (GAL4-hERα; value in parentheses): 2.5 µM | EC50 (GAL4-hERβ): 9.19 µM | EC50 (GAL4-hERβ; value in parentheses): 9.2 µM

COc1cc(/C=C/C(=O)OCC(O)CO)ccc1O (stereo not shown) [compound 5, 1-feruloyl glycerol]
ALP activity, activation of GAL4-hERα (GAL4-hERα; [1]): significant increases in the ALP activity | ALP activity, activation of GAL4-hERβ (GAL4-hERβ; [1]): significant increases in the ALP activity
